Activity calls are given as the source filed them.
What was measured:
cells [1] = settings: A549
[2] = target: T1, Heat shock factor protein 1 (Mus musculus, UniProt P38532); test: HSF1 potentiators in luciferase reporter cells, confirmation, cell-based, NIH3T3, luminescence, dose retest (AID 435004); assay type: functional;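 further: stress induced by proteasome inhibitor MG132 added 30 min after compound; luciferase reporter driven by HSF1 response element in NIH3T3 cells; actives raise luminescence as potentiators of the MG132 stress response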
T1 sequence (P38532 whole entry): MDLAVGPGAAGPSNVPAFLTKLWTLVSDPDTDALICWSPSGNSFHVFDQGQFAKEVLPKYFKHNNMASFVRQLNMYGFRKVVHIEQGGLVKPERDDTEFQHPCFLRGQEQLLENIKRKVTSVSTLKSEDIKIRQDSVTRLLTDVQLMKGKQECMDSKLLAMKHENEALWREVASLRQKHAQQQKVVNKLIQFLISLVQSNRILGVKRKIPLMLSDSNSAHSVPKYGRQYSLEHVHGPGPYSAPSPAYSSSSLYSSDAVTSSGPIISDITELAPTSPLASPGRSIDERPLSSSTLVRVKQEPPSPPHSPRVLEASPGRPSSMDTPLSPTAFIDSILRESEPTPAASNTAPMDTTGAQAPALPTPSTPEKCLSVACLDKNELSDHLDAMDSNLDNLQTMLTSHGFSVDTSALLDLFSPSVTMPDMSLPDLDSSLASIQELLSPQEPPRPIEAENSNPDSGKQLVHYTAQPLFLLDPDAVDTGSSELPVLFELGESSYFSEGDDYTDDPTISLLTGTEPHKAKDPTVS

[3] = target: T2, High affinity choline transporter 1 (Homo sapiens, UniProt Q9GZV3); test: CHT inhibitors, dose response, cell-based, 5-point CRC, membrane potential dye (AID 504840); assay type: functional
T2 sequence (Q9GZV3 whole entry): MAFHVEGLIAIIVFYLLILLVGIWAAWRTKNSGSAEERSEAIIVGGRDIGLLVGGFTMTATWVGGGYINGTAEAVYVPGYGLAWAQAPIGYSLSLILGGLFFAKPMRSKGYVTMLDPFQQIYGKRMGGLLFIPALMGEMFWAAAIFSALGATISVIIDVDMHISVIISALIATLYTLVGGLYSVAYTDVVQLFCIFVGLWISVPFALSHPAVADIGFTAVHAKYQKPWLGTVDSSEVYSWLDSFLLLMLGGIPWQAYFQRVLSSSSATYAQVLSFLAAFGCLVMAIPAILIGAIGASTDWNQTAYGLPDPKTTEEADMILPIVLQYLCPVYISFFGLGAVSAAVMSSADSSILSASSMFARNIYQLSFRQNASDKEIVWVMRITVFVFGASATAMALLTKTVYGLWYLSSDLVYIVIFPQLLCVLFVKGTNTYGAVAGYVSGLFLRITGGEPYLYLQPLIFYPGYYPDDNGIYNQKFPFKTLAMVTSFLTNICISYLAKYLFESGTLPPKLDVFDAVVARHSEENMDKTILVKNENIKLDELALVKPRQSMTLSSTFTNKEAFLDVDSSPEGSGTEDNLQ

[4] = target: T3, Oxysterols receptor LXR-beta (Homo sapiens, UniProt P55055); assay type: functional, cell-based;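 further: agonist activity at LXR measured by a cell-based luminescence readout across a dose range, run as a counterscreen for daf-12 agonists; HEK293 cells with Gal4-LXR fusion and GAL4-driven luciferase reporter; potency for activation of Gal4-LXR reporter so compounds are agonists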
T3 sequence (P55055 whole entry): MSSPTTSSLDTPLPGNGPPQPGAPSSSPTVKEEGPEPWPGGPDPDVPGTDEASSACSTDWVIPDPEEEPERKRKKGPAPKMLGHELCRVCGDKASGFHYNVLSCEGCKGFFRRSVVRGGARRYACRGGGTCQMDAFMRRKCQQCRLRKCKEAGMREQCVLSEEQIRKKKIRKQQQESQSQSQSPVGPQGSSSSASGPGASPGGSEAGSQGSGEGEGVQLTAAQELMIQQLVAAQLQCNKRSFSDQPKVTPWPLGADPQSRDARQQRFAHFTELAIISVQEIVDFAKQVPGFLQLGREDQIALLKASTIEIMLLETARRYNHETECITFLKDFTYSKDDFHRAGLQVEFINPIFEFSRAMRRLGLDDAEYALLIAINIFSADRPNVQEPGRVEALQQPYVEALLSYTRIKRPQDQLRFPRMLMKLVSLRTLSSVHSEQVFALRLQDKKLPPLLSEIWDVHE

[5] = Luminescence Cell-Based Dose Response HTS to Identify Activators of Luciferase Translation or Activity in H4 […] Cells. [Related pubchem assays: 1829 (Project Summary), 1814 (Primary HTS)]; assay type: functional
H4 = test: Luminescence Cell-Based Dose Response HTS to Identify Activators of 5'UTR Stem-Loop Driven Prion Protein mRNA Translation in H4 Neuroglioblastoma Cells. [Related pubchem assays: 1829 (Project Summary), 1814 (Primary HTS)]; assay type: functional; settings: Homo sapiens
[6] = target: T4, Sentrin-specific protease 8 (Homo sapiens, UniProt Q96LD8); assay type: functional;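 further: luminescence read-out of SENP8 inhibition, dose-response confirmation following an ultra-high-throughput screen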
T4 sequence (Q96LD8 whole entry): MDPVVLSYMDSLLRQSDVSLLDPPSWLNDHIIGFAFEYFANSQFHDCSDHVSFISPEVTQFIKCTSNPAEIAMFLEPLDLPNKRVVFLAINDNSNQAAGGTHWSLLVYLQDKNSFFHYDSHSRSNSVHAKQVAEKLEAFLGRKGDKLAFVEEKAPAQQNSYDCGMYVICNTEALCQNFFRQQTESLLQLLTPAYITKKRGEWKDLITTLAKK

[7] = target: T5, Sentrin-specific protease 7 (Homo sapiens, UniProt Q9BQF6); assay type: functional;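 further: Luminescence-based dose-response confirmation of ultra-high-throughput screening hits, measuring inhibition of SENP7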
T5 sequence (Q9BQF6 whole entry): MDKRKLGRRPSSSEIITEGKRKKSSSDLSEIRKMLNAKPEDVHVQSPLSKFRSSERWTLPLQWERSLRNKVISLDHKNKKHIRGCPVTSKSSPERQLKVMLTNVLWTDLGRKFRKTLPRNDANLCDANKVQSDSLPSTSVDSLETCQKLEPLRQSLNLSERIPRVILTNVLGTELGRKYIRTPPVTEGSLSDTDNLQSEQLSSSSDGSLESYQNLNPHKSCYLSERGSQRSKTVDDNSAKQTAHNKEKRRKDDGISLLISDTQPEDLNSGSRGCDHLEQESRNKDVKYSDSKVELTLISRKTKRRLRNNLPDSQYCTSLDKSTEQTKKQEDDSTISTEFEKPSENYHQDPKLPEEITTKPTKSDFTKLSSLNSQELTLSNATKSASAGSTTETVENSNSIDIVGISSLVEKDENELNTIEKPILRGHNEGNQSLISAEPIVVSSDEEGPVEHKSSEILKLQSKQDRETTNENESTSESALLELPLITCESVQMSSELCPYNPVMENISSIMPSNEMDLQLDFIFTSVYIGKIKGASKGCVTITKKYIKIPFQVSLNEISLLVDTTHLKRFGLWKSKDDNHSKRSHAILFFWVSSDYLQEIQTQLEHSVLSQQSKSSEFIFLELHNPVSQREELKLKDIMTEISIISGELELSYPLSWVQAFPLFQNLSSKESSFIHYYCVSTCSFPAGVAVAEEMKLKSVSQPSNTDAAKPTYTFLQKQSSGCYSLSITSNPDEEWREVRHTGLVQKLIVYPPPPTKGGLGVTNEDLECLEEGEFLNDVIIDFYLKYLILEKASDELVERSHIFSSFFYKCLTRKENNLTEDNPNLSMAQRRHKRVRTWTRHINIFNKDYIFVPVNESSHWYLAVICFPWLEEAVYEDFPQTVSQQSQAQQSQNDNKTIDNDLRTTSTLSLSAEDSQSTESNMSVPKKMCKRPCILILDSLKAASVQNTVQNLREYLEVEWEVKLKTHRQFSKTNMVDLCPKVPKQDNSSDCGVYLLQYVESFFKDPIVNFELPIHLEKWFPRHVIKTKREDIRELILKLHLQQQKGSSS

cells [8] = settings: HEK293
[9] = target: T6, Sentrin-specific protease 6 (Homo sapiens, UniProt Q9GZR1); assay type: functional;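 further: Luminescence-based dose-response confirmatory assay of SENP6 inhibition, following up an ultra-high-throughput screen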
T6 sequence (Q9GZR1 whole entry): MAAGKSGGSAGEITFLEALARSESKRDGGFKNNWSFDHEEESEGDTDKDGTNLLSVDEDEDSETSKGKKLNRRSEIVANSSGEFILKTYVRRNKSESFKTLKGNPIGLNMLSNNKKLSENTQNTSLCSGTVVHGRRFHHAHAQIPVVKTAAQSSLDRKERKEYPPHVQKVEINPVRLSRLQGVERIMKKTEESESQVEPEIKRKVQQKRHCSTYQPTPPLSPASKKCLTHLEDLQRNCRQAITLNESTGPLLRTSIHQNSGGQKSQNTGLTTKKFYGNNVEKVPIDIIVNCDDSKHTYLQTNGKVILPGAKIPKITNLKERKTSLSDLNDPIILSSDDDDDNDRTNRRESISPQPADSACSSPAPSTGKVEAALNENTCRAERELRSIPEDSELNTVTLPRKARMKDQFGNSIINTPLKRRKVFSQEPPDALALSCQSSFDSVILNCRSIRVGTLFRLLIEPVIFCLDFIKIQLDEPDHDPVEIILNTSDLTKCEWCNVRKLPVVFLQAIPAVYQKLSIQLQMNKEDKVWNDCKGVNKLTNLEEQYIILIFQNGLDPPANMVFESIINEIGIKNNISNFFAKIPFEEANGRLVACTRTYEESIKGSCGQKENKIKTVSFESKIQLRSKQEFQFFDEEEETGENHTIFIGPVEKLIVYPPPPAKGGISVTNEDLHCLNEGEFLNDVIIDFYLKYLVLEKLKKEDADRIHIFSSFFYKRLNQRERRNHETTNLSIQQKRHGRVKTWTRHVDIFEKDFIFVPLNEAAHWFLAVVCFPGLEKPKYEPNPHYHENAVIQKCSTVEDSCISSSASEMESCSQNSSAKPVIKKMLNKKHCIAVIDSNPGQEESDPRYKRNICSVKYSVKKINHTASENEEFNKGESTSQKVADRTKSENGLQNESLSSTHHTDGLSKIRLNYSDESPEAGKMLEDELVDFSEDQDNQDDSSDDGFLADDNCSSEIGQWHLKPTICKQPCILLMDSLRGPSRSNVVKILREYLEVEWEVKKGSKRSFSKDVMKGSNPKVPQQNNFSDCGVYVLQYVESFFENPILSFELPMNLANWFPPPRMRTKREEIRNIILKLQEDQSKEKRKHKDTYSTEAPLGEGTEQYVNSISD

Caspase-3 = target: T7, Caspase-3 (Homo sapiens, UniProt P42574); assay type: functional;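 further: Dose-response selectivity test against caspase-3 for candidate inhibitors of sentrin-specific proteases (SENPs)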
T7 sequence (P42574 whole entry): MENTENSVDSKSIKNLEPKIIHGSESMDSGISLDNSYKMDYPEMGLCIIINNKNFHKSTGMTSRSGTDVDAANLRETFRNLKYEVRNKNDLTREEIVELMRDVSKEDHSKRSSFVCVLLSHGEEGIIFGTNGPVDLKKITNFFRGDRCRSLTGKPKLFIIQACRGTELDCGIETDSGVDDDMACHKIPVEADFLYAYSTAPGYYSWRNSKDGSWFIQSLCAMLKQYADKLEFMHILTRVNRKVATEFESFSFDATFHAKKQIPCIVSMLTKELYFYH

## O=C(Nc1ccc2c(c1)OCCO2)c1ccc(NC(=O)C2CCCO2)cc1 (configuration not stated)
Cells [1]
  AC50: > 52 µM (inactive)

## O=C(Nc1ccn(Cc2ccccc2)n1)c1n[nH]c([N+](=O)[O-])c1Cl
[2]
  EC50: > 260 µM (inconclusive)
[3]
  IC50: 4.37 µM (active)
[4]
  EC50: > 67.5 µM (inactive)

## Cn1c(NC(=O)CCc2ccccc2)cc(=O)n(C)c1=O
[4]
  EC50: > 67.5 µM (inactive)
[5]
  EC50: 4.41 µM (inconclusive)
H4
  EC50: 9.93 µM (active)

## CC(=O)c1sc(N/N=C\c2ccc(N(C)C)cc2)nc1C
[6]
  IC50: 4.08 µM (active)
[7]
  IC50: 3.05 µM (active)
Cells [8]
  AC50: > 52 µM (inactive)
[9]
  IC50: 3.82 µM (active)
Caspase-3
  IC50: 9.56 µM (active)
